Reference: the supplement of paper PMC10307832

Tests used:
Test in all cases: relative viability (nuclei count vs DMSO), 5 days (fraction); higher = more cells survive
Vandetanib + Luminespib = compound: COc1cc2/c(=N/c3ccc(Br)cc3F)nc[nH]c2cc1OCC1CCN(C)CC1 [Vandetanib] + CCNC(=O)c1noc(-c2cc(C(C)C)c(O)cc2O)c1-c1ccc(CN2CCOCC2)cc1 [Luminespib] (partner 0.01 µM)
Method in brief: (§1)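 A single step with final 0.05% Triton X-100, 1% formaldehyde and 1 ug/ml Hoechst fixed the cells and stained nuclei 5 days after treatment. Lung cancer cell lines in 1536-well plates had been treated by pin tool the day after seeding with one drug alone or a fixed anchor-drug dose plus five library-drug doses (not always all listed) in √10 steps, and nuclei were counted on 4× images. Relative viability is the ratio of nuclei in treated wells to nuclei in vehicle wells, taken as the median of duplicate plates.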

[1] = compound: C1=CC=C2C(=C1)N=C(S2)C(C#N)C3=NC(=NC=C3)NCCC4=CN=CC=C4 + CC(=O)c1c(C)c2cnc(Nc3ccc(N4CCNCC4)cn3)nc2n(C2CCCC2)c1=O [Palbociclib] (partner 0.5 µM)
Method in brief: as §1

CUDC-101 + Tozasertib = compound: C#Cc1cccc(Nc2ncnc3cc(OC)c(OCCCCCCC(=O)NO)cc23)c1 [CUDC-101] + Cc1cc(Nc2cc(N3CCN(C)CC3)nc(Sc3ccc(NC(=O)C4CC4)cc3)n2)n[nH]1 [Tozasertib] (partner 0.1 µM)
Method in brief: as §1

[2] = compound: C1=CC=C2C(=C1)N=C(S2)C(C#N)C3=NC(=NC=C3)NCCC4=CN=CC=C4 + CS(=O)(=O)N1CCN(Cc2cc3nc(-c4cccc5[nH]ncc45)nc(N4CCOCC4)c3s2)CC1 [Pictilisib] (partner 1 µM)
Method in brief: as §1

Cell Line	relative viability (Vandetanib + Luminespib; first compound 0.02 µM)	relative viability (Vandetanib + Luminespib; first compound 0.06325 µM)	relative viability (Vandetanib + Luminespib; first compound 0.2 µM)	relative viability (Vandetanib + Luminespib; first compound 0.6325 µM)	relative viability (Vandetanib + Luminespib; first compound 2 µM)	relative viability ([1]; first compound 0.005 µM)	relative viability ([1]; first compound 0.01581 µM)	relative viability ([1]; first compound 0.05 µM)	relative viability ([1]; first compound 0.1581 µM)	relative viability ([1]; first compound 0.5 µM)	relative viability (CUDC-101 + Tozasertib; first compound 0.01 µM)	relative viability (CUDC-101 + Tozasertib; first compound 0.03162 µM)	relative viability (CUDC-101 + Tozasertib; first compound 0.1 µM)	relative viability (CUDC-101 + Tozasertib; first compound 0.3162 µM)	relative viability (CUDC-101 + Tozasertib; first compound 1 µM)	relative viability ([2]; first compound 0.005 µM)	relative viability ([2]; first compound 0.01581 µM)	relative viability ([2]; first compound 0.05 µM)	relative viability ([2]; first compound 0.1581 µM)	relative viability ([2]; first compound 0.5 µM)
NCI-H1650	0.198	0.216	0.161	0.21	0.154	0.318	0.272	0.336	0.395	0.175	0.398	0.318	0.305	0.383	0.267	0.488	0.529	0.559	0.723	0.471
NCI-H1651	1.09	1.01	0.171	0.901	0.641	0.473	0.518	0.535	0.539	0.504	0.622	0.712	0.613	0.788	0.585	0.364	0.585	0.68	0.815	0.565
NCI-H1666	1.05	0.981	0.405	0.949	0.823	0.64	0.654	0.632	0.631	0.657	0.594	0.564	0.676	0.565	0.507	0.474	0.39	0.369	0.402	0.332
NCI-H1734	0.205	0.204	0.135	0.187	0.229	0.303	0.313	0.307	0.355	0.33	0.256	0.257	0.23	0.216	0.202	0.439	0.488	0.406	0.587	0.473
NCI-H1755	0.396	0.43	0.409	0.783	0.353	0.431	0.44	0.481	0.5	0.644	0.478	0.563	0.572	0.602	0.584	0.392	0.35	0.379	0.576	0.384
NCI-H1793	0.189	0.14	0.159	0.209	0.166	–	0.344	0.29	0.319	0.276	0.321	0.237	0.325	0.293	0.375	0.329	0.275	0.353	0.267	0.352
NCI-H1915	0.744	0.808	0.766	0.766	0.733	–	0.532	0.498	0.569	0.523	0.437	0.458	0.429	0.357	0.288	0.933	0.929	0.923	1.1	0.879
NCI-H1944	0.811	0.743	0.745	0.676	0.651	0.314	0.373	0.293	0.32	0.318	0.268	0.213	0.275	0.236	0.17	0.369	0.33	0.355	0.362	0.319
NCI-H1975	0.347	0.27	0.224	0.173	0.236	0.565	0.538	0.656	0.832	0.408	0.741	0.717	0.843	0.837	0.701	0.262	0.28	0.284	0.307	0.255
NCI-H1993	0.951	0.785	0.538	0.838	0.721	0.651	0.64	0.699	0.708	0.694	0.592	0.517	0.624	0.53	0.502	0.862	0.963	0.848	0.64	0.745
NCI-H2009	1.04	0.998	0.17	1.07	1.03	0.223	0.168	0.215	0.229	0.206	0.8	0.695	0.778	0.801	0.639	0.853	0.644	0.845	1	0.835
NCI-H2023	0.811	0.604	0.796	0.731	0.497	0.328	0.309	0.394	0.383	0.332	0.336	0.337	0.363	0.328	0.293	0.283	0.205	0.209	0.265	0.239
NCI-H2085	0.451	0.384	0.269	0.478	0.398	0.428	0.465	0.415	0.472	0.471	0.708	0.786	0.882	0.726	0.705	0.43	0.43	0.39	0.483	0.388
NCI-H2087	0.183	0.197	0.132	0.179	0.255	0.24	0.208	0.214	0.261	0.227	0.292	0.243	0.233	0.195	0.223	0.873	0.856	0.883	1.04	0.92
NCI-H2126	0.882	0.855	0.888	0.914	0.687	0.299	0.363	0.365	0.347	0.354	0.892	0.79	0.807	0.867	0.743	0.499	0.493	0.417	0.526	0.487
NCI-H2170	0.715	0.606	0.689	0.616	0.823	0.284	0.391	0.38	0.43	0.34	0.632	0.698	0.753	0.62	0.345	–	0.298	0.292	0.394	0.32
NCI-H2228	0.153	0.176	0.116	0.143	0.116	0.564	0.886	0.649	1.12	0.597	0.255	0.237	0.263	0.317	0.194	0.341	0.283	0.37	0.307	0.402
NCI-H2347	0.594	–	0.333	0.642	0.574	0.455	0.45	0.484	0.447	0.444	0.561	0.614	0.608	0.583	0.499	0.474	0.695	0.659	0.756	0.609
NCI-H2405	0.736	0.539	0.776	0.642	0.55	0.462	0.572	0.543	0.533	0.461	0.748	0.809	0.725	0.756	0.611	0.456	0.378	0.397	0.506	0.422
NCI-H3122	0.0842	0.111	0.0787	0.0959	0.0934	0.162	0.208	0.199	0.184	0.178	0.373	0.451	0.391	0.321	0.386	0.62	0.655	0.603	0.613	0.64
PC-3 [JPC-3]	0.724	0.661	0.639	0.745	0.524	0.592	–	0.534	0.532	0.515	0.89	0.847	0.834	0.61	0.314	0.605	0.643	0.722	0.731	0.672
PC-14	0.234	0.152	0.184	0.13	0.131	0.34	0.479	0.515	0.559	0.441	0.656	0.544	0.391	0.528	0.115	–	0.785	0.778	0.498	0.533
RERF-LC-KJ	1.1	1.21	1.29	1.14	1.12	0.977	1.13	1.05	1.12	1.01	0.516	0.505	0.476	0.442	0.371	0.739	0.64	0.48	0.529	0.403
SK-LU-1	0.202	0.204	0.156	0.196	0.217	0.412	0.399	0.31	0.41	0.395	0.336	0.322	0.367	0.309	0.269	–	0.643	0.6	0.651	0.552
SK-MES-1	0.788	0.506	0.758	0.594	0.388	0.311	0.292	0.315	0.334	0.288	0.976	0.945	0.942	0.809	0.502	0.365	0.454	0.277	0.352	0.374
SW 1573	0.383	0.227	0.415	0.24	0.18	0.306	0.325	0.389	0.478	0.299	0.211	0.182	0.173	0.173	0.131	0.373	0.542	0.505	0.497	0.497
